Where two headings read alike, the source gives them in different places.

The source of these data is PMC12072338, “Allosteric Modulation of GCase Enhances Lysosomal Activity and Reduces ER Stress in GCase-Related Disorders” (International Journal of Molecular Sciences, 2025).

In the assay the target is T1, rhGCase (Cerezyme) (Homo sapiens, UniProt P04062, R534H).
T1 construct: Human full-length wild-type GCase protein (Cerezyme®, Genzyme, Naarden, Netherlands); purchased Genzyme, Naarden, Netherlands
T1 sequence (P04062 40-536 R534H): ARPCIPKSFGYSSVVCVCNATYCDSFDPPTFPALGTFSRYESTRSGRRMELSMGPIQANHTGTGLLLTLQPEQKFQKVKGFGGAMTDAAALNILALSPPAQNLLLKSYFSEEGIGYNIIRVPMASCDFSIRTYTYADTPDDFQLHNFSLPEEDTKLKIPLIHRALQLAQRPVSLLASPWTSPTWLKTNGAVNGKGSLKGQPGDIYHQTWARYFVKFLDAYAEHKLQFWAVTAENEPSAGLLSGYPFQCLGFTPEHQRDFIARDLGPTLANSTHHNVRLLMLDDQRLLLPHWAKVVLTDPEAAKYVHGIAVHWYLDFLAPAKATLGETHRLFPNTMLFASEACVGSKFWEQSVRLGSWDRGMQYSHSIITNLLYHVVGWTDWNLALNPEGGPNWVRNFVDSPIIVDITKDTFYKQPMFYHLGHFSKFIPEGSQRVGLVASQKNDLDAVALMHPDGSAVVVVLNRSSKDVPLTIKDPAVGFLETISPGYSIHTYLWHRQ
The assay can be described thus: nanoDSF thermal stability of rhGCase. The class given is binding. On the procedure: The stabilizing effects of GT-02287 and GT-02329 on GCase were assessed by nanoDSF. rhGCase protein (Cerezyme®, Genzyme, Naarden, Netherlands) was prepared at 0.1 mg/mL in two buffers: buffer 1 (10 mmol/L Citric Acid, 20 mmol/L Na2HPO4, pH 7.0) and buffer 2 (50 mmol/L Histidine, 150 mmol/L NaCl, pH 5.0). DMSO was added to a final concentration of 2%.
Samples were loaded into nanoDSF standard capillaries and analyzed using the Prometheus NT.48 instrument (NanoTemper Technologies, Munich, Germany). The thermal unfolding of GCase was monitored by tracking intrinsic fluorescence changes in tryptophan and tyrosine residues as the temperature increased from 20 °C to 95 °C at 2 °C/min. Each condition was run in duplicate at 25 μM and 100 μM compound concentrations. Melting temperatures (Tm) were determined from the fluorescence curves, and ΔTm shifts between compound-treated and control samples were calculated. The significance of Tm shifts was assessed using two criteria: an absolute ΔTm shift greater than 1.0 °C (instrumental criterion) and an absolute ΔTm standard deviation of 0.2 °C or less (statistical criterion).
A general note: DSF heats the sample and reads unfolding from a dye or from intrinsic fluorescence.

As a reminder, the ΔTm is the shift of the melting midpoint relative to a reference. As for `OC[C@H]1CNC[C@@H](O)[C@@H]1O` [IFG, isofagomine], the “Effect on protein thermal stability at pH 5.0” value (pH 5.0) is listed as “demonstrated stabilization”. In addition, the ΔTm at 100 µM reads like this: (pH 5.0, 100 µM compound, mean ± SD of two experiments, read-out: ΔTm at pH 5.0 and 100 µM) 3 °C; (pH 7.0, 100 µM compound, mean ± SD of two experiments, read-out: ΔTm at pH 7.0 and 100 µM) 11.5 °C. Also, the shift in melting temperature (ΔTm) at 25 µM (pH 7.0, 25 µM compound, mean ± SD of two experiments) is 9.9 ± 0.2 °C.
